Assay: Solubility of invention compounds in reactive diluents and oligomers
Assay type: physicochemical

C=C(C)C(=O)OCCC[Si]12O[Si]3(CCCOC(=O)C(=C)C)O[Si]4(CCCOC(=O)C(=C)C)O[Si](CCCOC(=O)C(=C)C)(O1)O[Si]1(CCCOC(=O)C(=C)C)O[Si](CCCOC(=O)C(=C)C)(O2)O[Si](CCCOC(=O)C(=C)C)(O3)O[Si](CCCOC(=O)C(=C)C)(O4)O1 [I.10]
50 wt %: Solubility in CN501 (in CRAYNOR CN501, amino-modified polether acrylate, * footnote: complete solubility after addition of a very small amount of CH2Cl2) | Solubility in TMPTA (in TMPTA = trihydroxymethylpropane triacrylate, * / # footnotes: dissolved after addition of a very small amount of CH2Cl2) | Solubility in TPGDA (in TPGDA = tri(propyleneglycol) diacrylate, * / # footnotes: dissolved after addition of a very small amount of CH2Cl2)

Reference: patent publication US7297460B2, “Radiation curable ink compositions suitable for ink-jet printing” (Agfa-Gevaert, priority 2003, dated 2007)
